Laboratory results taken from US5684012A, “Dimeric piperidine, tetrahydropyridine and piperazine derivatives” (H. Lundbeck A/S, priority 1992, dated 1997).
Where a name gives a salt, the structure may show the parent alone.

Molecular target: sigma receptors
Assay: Inhibition of ^3H-DTG binding to sigma receptors in rat brain in vitro
Conditions: Table I; 2 nM ^3H-DTG, rat brain without cerebellum, 25° C., 20 min

Going from `c1ccc2c(c1)COC21CCN(CCCCN2CCC3(CC2)OCc2ccccc23)CC1` [Compound 1a, 1,4-Bis[spiro[isobenzofuran-1(3 H),4'-piperidin]-1'-yl]butane] to `c1ccc2c(c1)COC21CCN(CCCCCN2CCC3(CC2)OCc2ccccc23)CC1` [Compound 1h, 1,5-Bis[spiro[isobenzofuran-1(3 H),4'-piperidin]-1-yl]pentane tetrafumarate], the IC50 rises from 0.64 nM to 2 nM (3.1-fold).

Going from `Fc1ccc(C2CCN(CCCCN3CCC(c4ccc(F)cc4)CC3)CC2)cc1` [Compound 1b, 1,4-Bis[4-(4-fluorophenyl)piperidin-1-yl]butane] to `Fc1ccc(C2CCN(CCCCCN3CCC(c4ccc(F)cc4)CC3)CC2)cc1` [Compound 1d, 1,5-Bis[4-(4-fluorophenyl)piperidin-1-yl]pentane, 2.5 fumarate], the IC50 rises from 0.41 nM to 1.4 nM (3.4-fold).

First: c1ccc2c(c1)COC1(CCN(CCCCN3CCC4(CC3)Cc3ccccc3CO4)CC1)C2 [Compound 1c, 1,4-Bis[1,4-dihydro-spiro[2-benzopyran-3,4'-piperidin]-1'-yl]butane]
Second: c1ccc2c(c1)CCC1(CCN(CCCCN3CCC4(CCc5ccccc5O4)CC3)CC1)O2 [Compound 1r, 1,4-Bis[3,4-dihydro-spiro[1-benzopyran-2,4'-piperidin]-1-yl]butane, difumarate]
The IC50 of the first is 8.1-fold lower: 16 nM for the first, 130 nM for the second. The first is the more potent here.

Compared with `Fc1ccc(N2CCN(CCCCN3CCN(c4ccc(F)cc4)CC3)CC2)cc1` [Compound 1e, 1,4-Bis[4-(4-fluorophenyl)piperazin-1-yl]butane], `O=C(CN1CCN(c2ccc(F)cc2)CC1)CN1CCN(c2ccc(F)cc2)CC1` [Compound 13a, 1,3-Bis[4-(4-fluorophenyl)piperazin-1-yl]-2-propanone] is 2800-fold higher in IC50: 0.89 nM for the first, 2500 nM for the second.

`c1ccc2c(c1)COC21CCN(CCCCCCN2CCC3(CC2)OCc2ccccc23)CC1` [Compound 1f, 1,6-Bis[spiro[isobenzofuran-1(3 H),4'-piperidin]-1'-yl]hexane] and `c1ccc2c(c1)COC21CCN(CCCN2CCC3(CC2)OCc2ccccc23)CC1` [Compound 2a, 1,3-Bis[spiro[isobenzofuran-1(3 H),4'-piperidin]-1'-yl]propane difumarate] are within 1.5-fold of each other in IC50: 0.71 nM for the first, 0.76 nM for the second.

Going from `Fc1ccc2c(c1)C1(CCN(CCCCN3CCC4(CC3)OCc3ccc(F)cc34)CC1)OC2` [Compound 1g, 1,4-Bis[6-fluoro-spiro[isobenzofuran-1(3 H),4'-piperidin]-1'-yl]butane] to `FC(F)(F)c1ccc2c(c1)C1(CCN(CCCCN3CCC4(CC3)OCc3ccc(C(F)(F)F)cc34)CC1)OC2` [Compound 1j, 1,4-Bis[6-(trifluoromethyl)-spiro[isobenzofuran-1(3 H),4'-piperidin]-1-yl]butane, dihydrochloride], the IC50 rises from 0.44 nM to 19 nM (43-fold). The first is the more potent here.

`c1ccc2c(c1)OC1(CCN(CCCCN3CCC4(CC3)Oc3ccccc3O4)CC1)O2` [Compound 1i, 1,4-Bis[spiro[1,3-benzodioxol-2,4'-piperidin]-1'-yl]butane] and `C1=CC2(CCN(CCCCN3CCC4(C=Cc5ccccc5O4)CC3)CC2)Oc2ccccc21` [Compound 1p, 1,4-Bis[spiro[1-benzopyran-2,4'-piperidin]-1-yl]butane, difumarate] are within 1.5-fold of each other in IC50: 45 nM for the first, 32 nM for the second.

First: c1ccc2c(c1)COCC21CCN(CCCCN2CCC3(CC2)COCc2ccccc23)CC1 [Compound 1k, 1,4-Bis[1,3-dihydro-spiro[2-benzopyran-4,4'-piperidin]-1'-yl]butane]
Second: c1ccc2c(c1)CCC21CCN(CCCCN2CCC3(CCc4ccccc43)CC2)CC1 [Compound 5a, 1,4-Bis[spiro[indan-1,4'-piperidin]-1'-yl]butane]
The IC50 of the first is 2.8-fold higher: 8.7 nM for the first, 3.1 nM for the second. The second is the more potent here.

Going from `Cc1ccc2c(c1)COC21CCN(CCCCN2CCC3(CC2)OCc2cc(C)ccc23)CC1` [Compound 1l, 1,4-Bis[5-methyl-spiro[isobenzofuran-1(3 H),4'-piperidin]-1-yl]butane] to `Cc1ccc2c(c1)COC21CCN(CCCCCCN2CCC3(CC2)OCc2cc(C)ccc23)CC1` [Compound 11a, 1,6-Bis[5-methyl-spiro[isebenzofuran-1(3 H),4'-piperidin]-1-yl]hexane], the IC50 falls from 23 nM to 9.7 nM (2.4-fold).

First: Fc1cccc2c1C1(CCN(CCCCN3CCC4(CC3)OCc3cccc(F)c34)CC1)OC2 [Compound 1m, 1,4-Bis[7-fluoro-spiro[isobenzofuran-1(3 H),4'-piperidin]-1'-yl]butane]
Second: c1ccc2c(c1)COC21CCN(CCOCCN2CCC3(CC2)OCc2ccccc23)CC1 [Compound 10a, Bis[2-spiro[isobenzofuran-1(3 H),4'-piperidin]-1'-ylethyl]ether,dihydrochloride]
The IC50 of the first is 2-fold higher: 5.1 nM for the first, 2.5 nM for the second.

Going from `c1ccc2c(c1)COC21CC2CCC(C1)N2CCCCN1C2CCC1CC1(C2)OCc2ccccc21` (stereo not drawn) [Compound 1n, 1,4-Bis[spiro[isobenzofuran-1(3 H),3'-8'-azabicyclo[3',2',1']octan]-8'-yl]butane] to `c1ccc2c(c1)COC21CCN(CCN2CCC3(CC2)OCc2ccccc23)CC1` [Compound 2c, 1,2-Bis[spiro[isobenzofuran-1(3 H),4'-piperidin]-1'-yl]ethane], the IC50 falls from 99 nM to 0.23 nM (430-fold). The second is the more potent here.

Compared with `Fc1ccc(C2=CC3CCC(C2)N3CCCCN2C3C=C(c4ccc(F)cc4)CC2CC3)cc1` [Compound 1o, 1,4-Bis[3-(4-fluorophenyl)-8-azabicyclo[3,2,1]oct-2-en-8-yl]butane], `Fc1ccc(C2=CCN(CCCCN3CC=C(c4ccc(F)cc4)CC3)CC2)cc1` [Compound 6a, 1,4-Bis[4-(4-fluorophenyl)-1,2,3,6-tetrahydropyridin-1-yl]butane] is 240-fold lower in IC50: 74 nM for the first, 0.31 nM for the second. The second is the more potent here.

First: c1ccc2c(c1)CCCC21CCN(CCCCN2CCC3(CCCc4ccccc43)CC2)CC1 [Compound 1q, 1,4-Bis[3,4-dihydro-spiro[naphthalene-1(2 H),4'-piperidin]-1'-yl]butane]
Second: c1ccc2c(c1)OCCC21CCN(CCCCN2CCC3(CCOc4ccccc43)CC2)CC1 [Compound 1u, 1,4-Bis[spiro[1-benzopyran-4,4'-piperidin]-1'-yl]butane]
The IC50 of the first is 24-fold higher: 4 nM for the first, 0.17 nM for the second.

Going from `c1ccc2c(c1)CSC21CCN(CCCCN2CCC3(CC2)SCc2ccccc23)CC1` [Compound 1s, 1,4-Bis[spiro[isobenzothiophene-1(3 H),4'-piperidin]-1-yl]butane] to `c1ccc2c(c1)CCOC21CCN(CCCCN2CCC3(CC2)OCCc2ccccc23)CC1` [Compound 1t, 1,4-Bis[spiro[1-benzopyran-2,4'-piperidin]-1-yl]butane, 1.25 fumarate], the IC50 rises from 0.04 nM to 0.38 nM (9.5-fold). The first is the more potent here.

Going from `Fc1ccc(C2CCN(CCCN3CCC(c4ccc(F)cc4)CC3)CC2)cc1` [Compound 2b, 1,3-Bis[4-(4-fluorophenyl)piperidin-1-yl]propane] to `Fc1ccc(C2CCN(CCN3CCC(c4ccc(F)cc4)CC3)CC2)cc1` [Compound 2d, 1,2-Bis[4-(4-fluorophenyl)piperidin-1-yl]ethane], the IC50 rises from 0.17 nM to 0.5 nM (2.9-fold). The first is the more potent here.

Compared with `c1ccc2c(c1)COC21CCN(CCN(CCN2CCC3(CC2)OCc2ccccc23)C2CCCC2)CC1` [Compound 3a, N,N-Bis[2-spiro[isobenzofuran-1(3 H),4'-piperidin]-1'-ylethyl]-N-cyctopentylamine, trihydrochloride], `CN(CCN1CCC2(CC1)OCc1ccccc12)CCN1CCC2(CC1)OCc1ccccc12` [Compound 3b, N,N-Bis[2-spiro[isobenzofuran-1(3 H),4'-piperidin]-1'-ylethyl]-N-methylamine, trihydrochloride] is 3.3-fold higher in IC50: 1.5 nM for the first, 4.9 nM for the second. The first is the more potent here.

Going from `C1=CC2(CCN(CCCCN3CCC4(C=Cc5ccccc54)CC3)CC2)c2ccccc21` [Compound 4a, 1,4-Bis[spiro[ind-2-en-1,4'-piperidin]-1'-yl]butane] to `c1ccc2c(c1)COC21CCN(CCSCCN2CCC3(CC2)OCc2ccccc23)CC1` [Compound 8a, Bis[2-spiro[isobenzofuran-1(3 H),4'-piperidin]-1-ylethyl]sulphide, difumarate], the IC50 falls from 4 nM to 0.78 nM (5.1-fold).

First: Fc1ccc(C2CCN(CCN(CCN3CCC(c4ccc(F)cc4)CC3)c3ccccc3)CC2)cc1 [Compound 7a, N,N-Bis[2-[4-(4-fluorophenyl)piperidin-1-yl]ethyl]aniline]
Second: OC(CN1CCC(c2ccc(F)cc2)CC1)CN1CCC(c2ccc(F)cc2)CC1 [Compound 12a, 1,3-Bis[4-(4-fluorophenyl)piperidin-1-yl]-2-propanol]
The IC50 of the first is 1.5-fold higher: 3.6 nM for the first, 2.4 nM for the second.

First: Fc1ccc(C(CCN2CCC3(CC2)OCc2ccccc23)CCN2CCC3(CC2)OCc2ccccc23)cc1 [Compound 7b, 1,5-Bis[spiro[isobenzofuran-1(3 H),4'-piperidin]-1'-yl]-3-(4-fluorophenyl)pentane, difumarate]
Second: O=S(=O)(CCN1CCC2(CC1)OCc1ccccc12)CCN1CCC2(CC1)OCc1ccccc12 [Compound 9a, Bis[2-spiro[isobenzofuran-1(3 H),4'-piperidin]-1'-ylethyl]sulphone]
The IC50 of the first is 2500-fold lower: 0.72 nM for the first, 1800 nM for the second.

Test system: not given
Assay: not given
Conditions: clinical; Snyder and Largent 1989; cited from earlier work

In the case of `C[C@@H]1CN(CCCn2c3ccccc3c3ccccc32)C[C@H](C)N1` [Rimcazole, reference compound], the “effects in the treatment of psychosis” value is listed as “clinically shows effects in the treatment of psychosis”.
